Several values for one entry are separate records, joined by “and”; a condition that tells them apart may be missing. Identical values can stand only once. Inconclusive results and toxic doses are left out. Peptide text beside a SMILES is read from it. * marks the point of attachment. Cbz = O=C(OCc1ccccc1)*
Tested on: BDF1 mice, B16 melanoma ip, median survival T/C
Assay: NCI In Vivo Anticancer Drug Screen. Data for tumor model B16 Melanoma (intraperitoneal) in B6D2F1 (BDF1) mice
Conditions: endpoint: median survival time, higher = longer survival
Method in brief: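 Antitumor activity is assessed in mice bearing a transplanted tumor, with survival or tumor size compared against vehicle-dosed controls and expressed as T/C.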

[1] = dose: 50.0 mg/kg/injection, schedule: Q01DX009 (ip), vehicle: other
[2] = dose: 0.25 mg/kg/injection, schedule: Q01DX009 (ip), vehicle: Klucel (hydroxypropylcellulose) (HPC)
[3] = dose: 0.5 mg/kg/injection, schedule: Q01DX009 (ip), vehicle: Klucel (hydroxypropylcellulose) (HPC)
[4] = dose: 100.0 mg/kg/injection, schedule: Q04DX003 (ip), vehicle: saline with Tween-80
[5] = dose: 400.0 mg/kg/injection, schedule: Q04DX003 (ip), vehicle: saline with Tween-80
[6] = dose: 6.25 mg/kg/injection, schedule: Q01DX009 (ip), vehicle: saline with Tween-80
[7] = dose: 12.5 mg/kg/injection, schedule: Q01DX009 (ip), vehicle: saline with Tween-80
[8] = dose: 25.0 mg/kg/injection, schedule: Q01DX009 (ip), vehicle: saline with Tween-80
[9] = dose: 50.0 mg/kg/injection, schedule: Q01DX009 (ip), vehicle: saline with Tween-80
[10] = dose: 100.0 mg/kg/injection, schedule: Q01DX009 (ip), vehicle: saline with Tween-80
[11] = dose: 100.0 mg/kg/injection, schedule: Q01DX009 (ip), vehicle: Klucel (hydroxypropylcellulose) (HPC)
[12] = dose: 200.0 mg/kg/injection, schedule: Q01DX009 (ip), vehicle: Klucel (hydroxypropylcellulose) (HPC)
[13] = dose: 400.0 mg/kg/injection, schedule: Q01DX009 (ip), vehicle: Klucel (hydroxypropylcellulose) (HPC)
[14] = dose: 25.0 mg/kg/injection, schedule: Q01DX009 (ip), vehicle: Klucel (hydroxypropylcellulose) (HPC)
[15] = dose: 50.0 mg/kg/injection, schedule: Q01DX009 (ip), vehicle: Klucel (hydroxypropylcellulose) (HPC)

SMILES: CCOc1c(Br)cc(Br)cc1C=C(C#N)C#N
- T/C (dose: 12.5 mg/kg/injection, schedule: Q01DX009 (ip), vehicle: other): 103 % of control
- T/C (dose: 25.0 mg/kg/injection, schedule: Q01DX009 (ip), vehicle: other): 98 % of control
- T/C [1]: 109 % of control

SMILES: CC1C2CCC3C(O)C2(CC(O)C2(O)C1CC(O)C2(C)C)CC3(C)O (stereo not given)
- T/C [2]: 103 % of control
- T/C [3]: 103 % of control

SMILES: COc1c2ccoc2c(OCC=C(C)C)c2oc(=O)ccc12
- T/C [4]: 94 % of control
- T/C (dose: 200.0 mg/kg/injection, schedule: Q04DX003 (ip), vehicle: saline with Tween-80): 105 % of control
- T/C [5]: 97 % of control

SMILES: CC1CC(C)CC(C)C(O)/C(C#N)=C/C=C/CC(C2CCCC2C(=O)O)OC(=O)CC(O)C(C)C1 (stereo not given)
- T/C (dose: 0.12 mg/kg/injection, schedule: Q01DX009 (ip), vehicle: Klucel (hydroxypropylcellulose) (HPC)): 111 % of control
- T/C (dose: 0.12 mg/kg/injection, schedule: Q01DX009 (ip), vehicle: saline with Tween-80): 119 % of control
- T/C [2]: 108 % of control
- T/C (dose: 0.25 mg/kg/injection, schedule: Q01DX009 (ip), vehicle: saline with Tween-80): 113 % of control
- T/C [3]: 110 % of control
- T/C (dose: 1.0 mg/kg/injection, schedule: Q01DX009 (ip), vehicle: Klucel (hydroxypropylcellulose) (HPC)): 107 % of control
- T/C (dose: 2.0 mg/kg/injection, schedule: Q01DX009 (ip), vehicle: Klucel (hydroxypropylcellulose) (HPC)): 105 % of control
- T/C (dose: 4.0 mg/kg/injection, schedule: Q01DX009 (ip), vehicle: Klucel (hydroxypropylcellulose) (HPC)): 98 % of control

SMILES: COc1cc(C(C)(C)C)cc(OC)c1C(O)(c1c(OC)cc(C(C)(C)C)cc1OC)c1c(OC)cc(C(C)(C)C)cc1OC
- T/C [6]: 102 % of control
- T/C [7]: 116 % of control
- T/C [8]: 109 % of control
- T/C [9]: 121 % of control
- T/C [10]: 109 % of control

SMILES: COc1cc(NS(=O)(=O)c2ccc(C(C)=O)cc2)nc(OC)n1
- T/C [11]: 100 % of control
- T/C [12]: 100 % of control
- T/C [13]: 93 % of control

SMILES: NC(=S)N/N=C\c1ncnc2ccccc12
- T/C (dose: 6.25 mg/kg/injection, schedule: Q01DX009 (ip), vehicle: Klucel (hydroxypropylcellulose) (HPC)): 124 % of control

SMILES: CCN(CC)CCOC(=O)c1ccc(N)cc1
- T/C (dose: 6.25 mg/kg/injection, schedule: Q01DX009 (ip), vehicle: saline): 100 % of control
- T/C (dose: 12.5 mg/kg/injection, schedule: Q01DX009 (ip), vehicle: saline): 92 % of control
- T/C (dose: 25.0 mg/kg/injection, schedule: Q01DX009 (ip), vehicle: saline): 100 % of control
- T/C (dose: 50.0 mg/kg/injection, schedule: Q01DX009 (ip), vehicle: saline): 107 % of control
- T/C (dose: 100.0 mg/kg/injection, schedule: Q01DX009 (ip), vehicle: saline): 105 % of control

SMILES: O=C(CN1CCCCC1)Nc1cccc(C(F)(F)F)c1
- T/C [11]: 87 % of control
- T/C [12]: 89 % of control

SMILES: N#CCCNC(Cc1ccc(O)cc1)C(=O)O (stereo not given)
- T/C (dose: 12.5 mg/kg/injection, schedule: Q01DX009 (ip), vehicle: Klucel (hydroxypropylcellulose) (HPC)): 109 % of control
- T/C [14]: 100 % of control
- T/C [15]: 88 % of control
- T/C (dose: 56.25 mg/kg/injection, schedule: Q04DX003 (ip), vehicle: Klucel (hydroxypropylcellulose) (HPC)): 95 % of control
- T/C (dose: 75.0 mg/kg/injection, schedule: Q01DX009 (ip), vehicle: Klucel (hydroxypropylcellulose) (HPC)): 116 % of control
- T/C (dose: 112.5 mg/kg/injection, schedule: Q04DX003 (ip), vehicle: Klucel (hydroxypropylcellulose) (HPC)): 105 % of control

SMILES: Cc1[nH]ccc2c(C)c3nc4ccccc4c3cc12
- T/C [14]: 161 % of control

SMILES: NC(=O)C(Cc1ccccc1)NC(=O)C(Cc1ccccc1)NC(=O)C(Cc1ccccc1)NC(=O)OCc1ccccc1 (stereo not drawn) (Cbz-Phe-Phe-Phe-NH2; configuration not given here)
- T/C (dose: 3.12 mg/kg/injection, schedule: Q01DX009 (ip), vehicle: saline with Tween-80): 100 % of control
- T/C [6]: 89 % of control
- T/C [7]: 96 % of control
- T/C [8]: 91 % of control

SMILES: O=CN(c1ccccc1)c1ccccc1
- T/C [1]: 100 % of control
- T/C (dose: 100.0 mg/kg/injection, schedule: Q01DX009 (ip), vehicle: other): 100 % of control
- T/C (dose: 200.0 mg/kg/injection, schedule: Q01DX009 (ip), vehicle: other): 105 % of control
- T/C (dose: 400.0 mg/kg/injection, schedule: Q01DX009 (ip), vehicle: other): 97 % of control

SMILES: Cc1ccc(SSc2ccc(C)cc2[N+](=O)[O-])c([N+](=O)[O-])c1
- T/C [14]: 100 % of control
- T/C [15]: 89 % of control
- T/C [11]: 86 % of control and 93 % of control

SMILES: CC(=O)CC(C)=O.CC(=O)CC(C)=O.[Co]
- T/C [6]: 97 % of control
- T/C [7]: 102 % of control
- T/C [8]: 91 % of control

SMILES: Cc1nc2ccc(CCN3CCN(c4ccccc4Cl)CC3)cc2[nH]1
- T/C (dose: 4.12 mg/kg/injection, schedule: Q01DX009 (ip), vehicle: saline): 90 % of control
- T/C (dose: 8.25 mg/kg/injection, schedule: Q01DX009 (ip), vehicle: saline): 92 % of control

SMILES: CCCCCCCCCC(O)CC (stereo not given)
- T/C [11]: 98 % of control
- T/C [12]: 96 % of control
- T/C [13]: 100 % of control

SMILES: CC(C)C(NC(=O)c1ccccc1)C(=O)O (stereo not given)
- T/C (dose: 25.0 mg/kg/injection, schedule: Q04DX003 (ip), vehicle: Klucel (hydroxypropylcellulose) (HPC)): 111 % of control
- T/C [9]: 95 % of control
- T/C (dose: 50.0 mg/kg/injection, schedule: Q04DX003 (ip), vehicle: Klucel (hydroxypropylcellulose) (HPC)): 100 % of control
- T/C [11]: 103 % of control
- T/C [10]: 93 % of control
- T/C (dose: 100.0 mg/kg/injection, schedule: Q04DX003 (ip), vehicle: Klucel (hydroxypropylcellulose) (HPC)): 86 % of control
- T/C [12]: 96 % of control

SMILES: CCOc1ccccc1NC(=O)Nc1ccccc1Cl
- T/C [10]: 103 % of control
- T/C (dose: 200.0 mg/kg/injection, schedule: Q01DX009 (ip), vehicle: saline with Tween-80): 94 % of control
- T/C (dose: 400.0 mg/kg/injection, schedule: Q01DX009 (ip), vehicle: saline with Tween-80): 89 % of control

SMILES: O=C(O)C(O)C(=O)O.[NH-]C1CCCCC1[NH-].[Pt+2]
- T/C (dose: 20.0 mg/kg/injection, schedule: Q01DX009 (ip), vehicle: other): 161 % of control
- T/C (dose: 40.0 mg/kg/injection, schedule: Q01DX009 (ip), vehicle: other): 150 % of control

SMILES: O=C(Nc1ccc2c(c1)Cc1cc(Br)ccc1-2)C(F)(F)F
- T/C (dose: 25.0 mg/kg/injection, schedule: Q04DX003 (ip), vehicle: saline with Tween-80): 103 % of control
- T/C (dose: 50.0 mg/kg/injection, schedule: Q04DX003 (ip), vehicle: saline with Tween-80): 109 % of control
- T/C [4]: 95 % of control and 96 % of control
- T/C [5]: 86 % of control

SMILES: CC(C)CNC(=O)c1ccc(N=NN(C)Cc2ccncc2)cc1
- T/C [8]: 93 % of control
- T/C [9]: 97 % of control
- T/C [10]: 103 % of control

SMILES: CC(NC(=O)C1CCCN1C(=O)OCc1ccccc1)C(=O)O (stereo not given)
- T/C [9]: 91 % of control
- T/C [10]: 90 % of control

SMILES: NC(=O)CCCN1CCCC1=O
- T/C (dose: 100.0 mg/kg/injection, schedule: Q04DX003 (ip), vehicle: saline): 106 % of control
- T/C (dose: 200.0 mg/kg/injection, schedule: Q04DX003 (ip), vehicle: saline): 109 % of control
- T/C (dose: 400.0 mg/kg/injection, schedule: Q04DX003 (ip), vehicle: saline): 106 % of control

SMILES: CNC(=O)N(C)c1cc(N(C)C)nc(OC)n1
- T/C (dose: 5.0 mg/kg/injection, schedule: Q01DX009 (ip), vehicle: Klucel (hydroxypropylcellulose) (HPC)): 101 % of control
- T/C (dose: 10.0 mg/kg/injection, schedule: Q01DX009 (ip), vehicle: Klucel (hydroxypropylcellulose) (HPC)): 93 % of control
- T/C (dose: 20.0 mg/kg/injection, schedule: Q01DX009 (ip), vehicle: Klucel (hydroxypropylcellulose) (HPC)): 94 % of control
